Data: patent EP2913057B1, “Cancer peptide therapeutics” (Indiana University Research and Technology Corporation, priority 2008, dated 2010)
Entries after “also recorded” stand apart in the source; their conditions may differ. Residues, ends and D or L forms follow the SMILES beside them.

How the values were obtained:
U937 cells [1] = test: Cytotoxicity (apoptosis / cell death) of R9-linked caPCNA peptides by flow cytometry; type: cell-based; details: 24 hours; for % cancer cell death: 30mM of peptide, flow cytometry
Method: First, it was tested whether or not the R9 sequence alone had any cytotoxic effect in U937 cells. The U937 cells were treated with up to 100mM of the R9 sequence for 24 hours.
Once it was established that the R9 sequence promoted cellular uptake of the peptide, increasing amounts of R9-caPep were added to U937 cells to determine if the peptide's uptake would have any cytotoxic effect.
To verify that the cytotoxicity of the R9-caPep was due to the PCNA peptide sequence itself, a scrambled peptide using the same eight amino acids, R9-Scrambled, was prepared (Table 3).
The cancer associated epitope of PCNA is also part of the flexible IDCL region of PCNA. This region of PCNA is considered to have a disordered structure. Disordered regions in proteins are usually associated with protein-to-protein interaction sites. […] To determine which amino acids in the R9-caPep sequence are necessary for binding of the peptide to these proteins, peptide constructs were generated that mutated each aminoacid individually to an alanine (Table 3). Each alanine mutant peptide of caPCNA was used to treat U937 cells for 24 hours. An amino acid that is important to protein binding would presumably show decreased cell cytotoxicity when it is substituted with an alanine. Those amino acids which are not critical for binding could be anticipated to show a cytotoxic level similar to that of the unsubstituted peptide. For a comparison of the potential cytotoxic effect of each of the alanine substituted R9-linked caPeptides, U937 cells were treated with 30mM of peptide. […] It was observed that peptides containing an alanine substituted at position aa126 or aa133 show little cytotoxic activity and therefore were likely important for the peptide's activity.

U937 cells [2] = test: cells; details: Homo sapiens, U-937, read-out: cell death
MCF 7 (breast cancer) = test: Cytotoxic effect in malignant breast cells, cell death by flow cytometry; type: cell-based; set-up: dose or concentration left out as unconfirmed; details: 48 hours
Method: The R9-caPeptide was evaluated for cytotoxic effects in non-malignant (MCF 10A) and malignant (MCF 7) breast cells (Table 6). The cells were treated with 50 mM R9-caPeptide for 48 hours and the extent of cell death was evaluated by flow cytometry. […] The significant level of cytotoxicity in breast cancer cells is likely due to enhanced binding interaction of caPeptide with specific DNA repair proteins in these cells, as indicated for example by the observed preferential binding of caPCNA for XPG protein, leading to an inhibition of DNA repair in these cells, and ultimately cell death.

Row | Compound | % cancer cell death (U937 cells [1]) [%] | other results
1 | RRRRRRRRRCCLGAPEQEY [A3-sub. peptide, R9-linked caPCNA peptide, alanine at aa128] | 21±12 | –
2 | RRRRRRRRRCCLGIPEQAY [A7-sub. peptide, R9-linked caPCNA peptide, alanine at aa132] | 88±4 | –
3 | COc1cccc2c1C(=O)c1c(O)c3c(c(O)c1C2=O)C[C@@](O)(C(=O)CO)C[C@@H]3O[C@H]1C[C@H](N)[C@H](O)[C@H](C)O1 [doxorubicin] | – | cytotoxicity at 0.1 µM (U937 cells [2]): 30%
4 | RRRRRRRRRCCLAIPEQEY [A2-sub. peptide, R9-linked caPCNA peptide, alanine at aa127] | 47±13 | –
5 | RRRRRRRRRCCAGIPEQEY [A1-sub. peptide, R9-linked caPCNA peptide, alanine at aa126] | 8±9 | –
6 | RRRRRRRRRCCLGIPEQEA [A8-sub. peptide, R9-linked caPCNA peptide, alanine at aa133] | 7±6 | –
7 | RRRRRRRRRCCLGIPAQEY [A5-sub. peptide, R9-linked caPCNA peptide, alanine at aa130] | 45±14 | –
8 | RRRRRRRRR [R9, reference compound] | – | cytotoxic effect (apoptosis) (U937 cells [1]; up to 100mM of the R9 sequence): did not promote apoptosis; also recorded: did not cause an increase apoptosis
9 | RRRRRRRRRCCLGIAEQEY [A4-sub. peptide, R9-linked caPCNA peptide, alanine at aa129] | 80±7 | –
10 | RRRRRRRRRCCLGIPEAEY [A6-sub. peptide, R9-linked caPCNA peptide, alanine at aa131] | 93±7 | –
11 | CC[C@H](C)[C@H](NC(=O)CNC(=O)[C@@H](N)CC(C)C)C(=O)N1CCC[C@H]1C(=O)N[C@@H](CCC(=O)O)C(=O)N[C@@H](CCC(N)=O)C(=O)N[C@@H](CCC(=O)O)C(=O)N[C@@H](Cc1ccc(O)cc1)C(=O)O [caPeptide] (H-LGIPEQEY-OH) | – | cytotoxic activity (apoptosis) (U937 cells [1]; up to 200mM of caPeptide): did not have any cytotoxic activity; also recorded: no increase in apoptosis was detected
12 | CC[C@H](C)[C@H](NC(=O)CNC(=O)[C@H](CC(C)C)NC(=O)[C@H](CS)NC(=O)[C@H](CS)NC(=O)[C@@H](CCCNC(=N)N)NC(=O)[C@@H](CCCNC(=N)N)NC(=O)[C@@H](CCCNC(=N)N)NC(=O)[C@@H](CCCNC(=N)N)NC(=O)[C@@H](CCCNC(=N)N)NC(=O)[C@@H](CCCNC(=N)N)NC(=O)[C@@H](CCCNC(=N)N)NC(=O)[C@@H](CCCNC(=N)N)NC(=O)[C@H](N)CCCNC(=N)N)C(=O)N1CCC[C@H]1C(=O)N[C@@H](CCC(=O)O)C(=O)N[C@@H](CCC(N)=O)C(=O)N[C@@H](CCC(=O)O)C(=O)N[C@@H](Cc1ccc(O)cc1)C(=O)O [R9-caPep] | – | cytotoxicity for malignant breast cells (MCF7) relative to non-malignant breast cells (MCF10A) (MCF 7 (breast cancer)): approximately five times more cytotoxic
